Measured values reported in publication PMC12386606, “Evaluation of the In Vitro Blood–Brain Barrier Transport of Ferula persica L. Bioactive Compounds” (International Journal of Molecular Sciences, 2025).
Where two headings read alike, the source gives them in different places.

Assays:
[1] = Parallel artificial membrane permeability assay for the blood–brain barrier (PAMPA-BBB); conditions: for AerExt log Pe: compound within AerExt donor solution; for AerExt log Pe / RootExt log Pe: 37 °C, 4 h, PBS pH 7.4, n.q. = not quantified in the acceptor plate; for RootExt log Pe: compound within RootExt donor solution; for AerExt Cross BBB Potential: compound within AerExt; for AerExt Cross BBB Potential / RootExt Cross BBB Potential: PAMPA-BBB; for Papp at 4 h: PAMPA, pH 7.4; for RootExt Cross BBB Potential: compound within RootExt
Description: (§1) The permeability of bioactive compounds from AerExt and RootExt across the BBB was assessed using the PAMPA-BBB assay, following the methodology described by [11]. Firstly, the BBB solution was prepared by dissolving 8 mg of PBL and 4 mg of cholesterol in 600 μL of n-dodecane. The initial donor solution was prepared by mixing 1 mL of AerExt or RootExt (at 10 mg mL^−1 in EtOH) with 1 mL of buffer (PBS, pH = 7.4, 10 mM). The filter membrane of the donor plate was coated with 5 μL of BBB solution. The acceptor plate was filled with 350 μL of buffer, and the donor plate was carefully placed on top of the acceptor plate to form a “sandwich-like” assembly. Subsequently, 350 μL of the donor solution was added to the donor plate, which was then covered and incubated at 37 °C for 4 h in the dark. After the incubation time, 300 μL of the solution was collected from each plate, transferred into separate vials, and evaporated using a SpeedVac system at 40 °C under 13 mbar pressure. The dried acceptor and donor solutions were dissolved in 50 μL of pure EtOH before being subjected to HPLC-Q-TOF-MS/MS and GC-Q-TOF-MS analysis. Permeability (Pe) across the PAMPA-BBB of the bioactive compound was calculated according to Equation (1) [54], with modifications in concentration rates.Pe = −ln[1 − CA(t)/Cequilibrium]/(A × (1/VD + 1/VA) × t)(1)
(§2) Cequilibrium was calculated according to Equation (2):Cequilibrium = [CD(t) × VD + CA(t) × VA]/(VD + VA)(2)
(§3) The HPLC-MS and GC-MS chromatograms were processed using the Agilent Mass Hunter Qualitative software (version B.10.0) to verify the retention time and exact mass of the compounds previously reported by us [25] and to extract their peak area to calculate the BBB permeability.

[2] = oil/water partition coefficient, ref PubChem, cited from earlier work
HBMEC cells = test: Blood–brain barrier transport study in HBMEC Transwell monolayer; conditions: for crossing of the HBMEC-BBB: AerExt 40 µg mL^−1 / RootExt 20 µg mL^−1, 2, 4, 24 h; for RootExt Te (%) ± SD 2 h / RootExt Te (%) ± SD 4 h / RootExt Te (%) ± SD 24 h: RootExt 20 µg mL^−1 apical; for RootExt Te (%) ± SD 2 h / RootExt Te (%) ± SD 4 h / RootExt Te (%) ± SD 24 h / AerExt Te (%) ± SD 2 h / AerExt Te (%) ± SD 4 h / AerExt Te (%) ± SD 24 h: n.q. = not quantified in the basolateral compartment; for AerExt Te (%) ± SD 2 h / AerExt Te (%) ± SD 4 h / AerExt Te (%) ± SD 24 h: AerExt 40 µg mL^−1 apical
Description: After the toxicity evaluation, the HBMEC cell line was also used as a simplified in vitro model of the BBB endothelium. Cells were seeded at a density of 1.6 × 10^5 cells/cm^2 in 12-well Transwell® plates (Corning Costar Corp., Corning, USA) with a pore diameter of 0.4 μm, pre-coated with type I rat tail collagen (100 μg mL^−1) [55]. The culture medium was renewed every 2 days until a monolayer cell structure was formed (see Supplementary Figure S2), and transport experiments were initiated after 10 days. In transport experiments, the medium in the apical (upper) compartment of the Transwell system was removed, and 0.5 mL of AerExt or RootExt at a concentration of 40 μg mL^−1 and 20 μg mL^−1, respectively, was added to these compartments (applied in duplicate). Also, a medium containing 0.4% (v/v) ethanol was used as control group. The basolateral (lower) compartments were filled with 1.5 mL of fresh culture medium. The cells were incubated under these conditions for 2, 4, and 24 h.
At the end of the incubation periods, media samples were collected from both chambers and lyophilized using a freeze-drying system from Martin Christ (Osterode am Harz, Germany). The samples were stored at −80 °C until analysis. The collected samples were subjected to chemical analyses to evaluate the ability of bioactive compounds contained in the extracts to pass through the cell monolayer.
The transport efficiency (Te) of bioactive substances was calculated based on Equation (3), described by [56]:Te (%) = CLower/CUpper × 100(3)
This calculation was performed to understand whether the compound crosses the cell layer and how efficiently it is transported.
For this purpose, 0.2 mL of cold water (H2O) was added to the samples, and the samples were vortexed for 10 s. Then, 0.8 mL of cold methanol was added and vortexed again for 10 s. Then, the mixture was centrifuged at 14,000 rpm for 5 min, and the supernatant was carefully transferred to a 1.5 mL Eppendorf tube and dried in a SpeedVac device at 40 °C and 13 bar pressure. Finally, the dried samples were resuspended in 25 μL of pure ethanol for their subsequent analysis.
For HPLC-Q-TOF MS/MS analysis, aliquots of 2 μL were injected into an HPLC model 1290 coupled to a Q-TOF series 6540 (Agilent Technologies, Waldbronn, Germany). For GC-Q-TOF MS analysis, aliquots of 1 μL were injected with a split ratio of 1:10 into a GC model 7890B coupled to a Q-TOF series 7200 (Agilent Technologies, Waldbronn, Germany). The HPLC-MS and GC-MS chromatograms were processed using the Agilent Mass Hunter Qualitative software (version B.10.0) to verify the retention time and exact mass of the compounds previously reported by us [25] and to extract their peak area to calculate the BBB permeability.

SH-SY5Y cells = test: Neuroprotection against H2O2, L-glutamate and Aβ1-42 in differentiated SH-SY5Y cells (MTT); conditions: 24 h
Description: To investigate the neuroprotective potential of AerExt or RootExt, oxidative damage (H2O2), excitotoxic stress (L-glutamate), and Aβ1-42 toxicity were induced in cells and evaluated as described by [58]. Briefly, SH-SY5Y cells were plated as described above, and 24 h after cell attachment, cells were pre-treated with non-toxic concentrations of AerExt or RootExt (40 μg mL^−1 for AerExt; 20 μg mL^−1 for RootExt) for 24 h. In the control group, DMEM/F12 cell medium supplemented with 1% FBS, 100 U mL^−1 penicillin, 100 μg mL^−1 streptomycin, 250 ng mL^−1 antimycotic, and 0.4% ethanol was used. The next day, cells were incubated with either cell medium alone (control), H2O2 (65 μM), L-glutamate (23 mM), or Aβ1-42 (30 μM) for 24 h. Cell viability was assessed by MTT assay at the end of the experiments. All the experiments were repeated three times, and a T-test was applied between the treated and control conditions considering statistically significant differences when p < 0.05.

[3] = PAMPA
Description: as §1, §2, §3

AerExt log Pe [1] | RootExt Te (%) ± SD 2 h (HBMEC cells) | AerExt Te (%) ± SD 2 h (HBMEC cells) | AerExt Te (%) ± SD 4 h (HBMEC cells) | RootExt log Pe [1] | Compound | log p ([2]; Table 1) | AerExt Te (%) ± SD 24 h (HBMEC cells) | further results
n.q. | n.q. | – | – | – | Oc1ccc(O)c(O)c1 [1,2,4-benzenetriol] | 1.5 | – | crossing of the HBMEC-BBB (HBMEC cells): could not cross the HBMEC-BBB; RootExt Te (%) ± SD 4 h (HBMEC cells): n.q.; RootExt Te (%) ± SD 24 h (HBMEC cells): n.q.
n.q. | 21.4 ± 5.3% | 17.5 ± 3.5% | 9.6 ± 0.6% | – | O=C(O)c1cccc(O)c1O [2,3-dihydroxybenzoic acid] | 1.2 | 14.0 ± 3.9% | log p ([2]; Table 2): 1.5; RootExt Te (%) ± SD 4 h (HBMEC cells): 23.9 ± 4.4%; RootExt Te (%) ± SD 24 h (HBMEC cells): 214.1 ± 45.4%
−5.68 | n.q. | – | – | −5.22 | O=C(O)C=Cc1cc(O)ccc1O [2,5-dihydroxycinnamic acid] | 1.2 | – | crossing of the HBMEC-BBB (HBMEC cells): could not cross the HBMEC-BBB; RootExt Te (%) ± SD 4 h (HBMEC cells): n.q.; RootExt Te (%) ± SD 24 h (HBMEC cells): n.q.
n.q. | n.q. | n.q. | n.q. | n.q. | O=C(O)/C=C/c1ccc(O)cc1 [4-coumaric acid] | 1.5 | n.q. | RootExt Te (%) ± SD 4 h (HBMEC cells): n.q.; RootExt Te (%) ± SD 24 h (HBMEC cells): n.q.
n.q. | n.q. | n.q. | n.q. | – | COc1ccc(C=O)c(O)c1 [4-methoxysalicylaldehyde] | 1.5 | n.q. | crossing of the HBMEC-BBB (HBMEC cells): could not cross the HBMEC-BBB
– | – | n.q. | n.q. | n.q. | O=c1cc(-c2ccc(O)cc2)oc2cc(O[C@@H]3O[C@H](CO)[C@@H](O)[C@H](O)[C@H]3O)cc(O)c12 [Apigenin 7-glucoside] | −0.1 | – | AerExt Cross BBB Potential [1]: + (log Pe < −6.5); crossing of the HBMEC-BBB (HBMEC cells): could not cross the HBMEC-BBB
– | – | – | – | – | OO [H2O2] | – | – | cell viability after neurotoxic agent, compared with control (SH-SY5Y cells; H2O2 65 µM): 48%
– | – | – | – | – | Cc1nccc2c1[nH]c1ccccc12 [Harman] | 3.6 | – | AerExt Cross BBB Potential [3]: ++ (key: –: not quantified in acceptor; +: log Pe < −6.5; ++: −6.5 < log Pe < −5.5; +++: −5.5 < log Pe < −4.5)
– | – | – | – | – | COc1c(O)cc2oc(-c3ccc(O[C@@H]4O[C@H](CO)[C@@H](O)[C@H](O)[C@H]4O)cc3)cc(=O)c2c1O [Hispidulin 4′-glucoside] | – | – | AerExt Cross BBB Potential [3]: + (key: –: not quantified in acceptor; +: log Pe < −6.5; ++: −6.5 < log Pe < −5.5; +++: −5.5 < log Pe < −4.5); AerExt log Pe ([3]; pH 7.4): −6.14
– | – | – | – | – | N[C@@H](CCC(=O)O)C(=O)O [L-glutamate] | – | – | viability at 23000 µM (SH-SY5Y cells; Homo sapiens, read-out: cell viability after neurotoxic agent, compared with control): 47%
– | n.q. | n.q. | n.q. | – | COc1ccc(-c2cc(=O)c3c(OC)c(OC)c(OC)c(OC)c3o2)cc1OC [Nobiletin] | 3.0 | n.q. | Papp at 4 h [1]: 49 ×10⁻⁶ cm/s; crossing of the HBMEC-BBB (HBMEC cells): could not cross the HBMEC-BBB; RootExt Te (%) ± SD 4 h (HBMEC cells): n.q.; RootExt Te (%) ± SD 24 h (HBMEC cells): n.q.
n.q. | n.q. | – | – | n.q. | CC(C)[C@@H]1CC[C@@]2(C)[C@H](O)CC[C@](C)(O)[C@H]2[C@@H]1O[C@@H]1O[C@H](CO)[C@@H](O)[C@H](O)[C@H]1O [Ophiopogonoside A] | 0.4 | – | RootExt Te (%) ± SD 4 h (HBMEC cells): n.q.; RootExt Te (%) ± SD 24 h (HBMEC cells): 66.0 ± 3.2%
n.q. | – | – | – | n.q. | COc1cc([C@H]2OC[C@H]3[C@@H]2CO[C@@H]3c2cc(OC)c(O[C@@H]3O[C@H](CO)[C@@H](O)[C@H](O)[C@H]3O)c(OC)c2)cc(OC)c1O [Syringaresinol glucoside] | −1.4 | – | –
−5.35 | – | – | – | −5.59 | C[C@@H]1CCC=C2CC[C@@H](C(C)(C)O)C[C@]21C [Valerianol] | 3.5 | – | RootExt Cross BBB Potential [1]: + (log Pe < −6.5)
– | – | – | – | – | CC1=C2C[C@H](C(C)(C)O)CC[C@]2(C)CCC1 [epi-γ-eudesmol] | 2.9 | – | AerExt Cross BBB Potential [1]: + (log Pe < −6.5); RootExt Cross BBB Potential [1]: + (log Pe < −6.5)
– | – | – | – | – | COc1cc(/C=C/CO)cc(OC)c1O [trans-sinapyl alcohol] | 1.3 | – | RootExt Cross BBB Potential [1]: + (log Pe < −6.5)
– | – | – | – | – | CC(C)=CCC[C@](C)(O)[C@@H]1CC=C(C)CC1 [α-bisabolol] | 1.3 | – | AerExt Cross BBB Potential [1]: + (log Pe < −6.5); RootExt Cross BBB Potential [1]: + (log Pe < −6.5)
n.q. | – | – | – | n.q. | C=CC1(C)CCC(=C(C)C)CC1C(=C)C (stereo not drawn) [γ-elemene] | 5.4 | – | –
– | – | – | – | – | CC1=C2C[C@H](C(C)(C)O)CC[C@@]2(C)CCC1 [γ-eudesmol] | 3.7 | – | AerExt Cross BBB Potential [1]: + (log Pe < −6.5); RootExt Cross BBB Potential [1]: + (log Pe < −6.5)
−5.25 | – | – | – | – | Farnesyl acetate | 5.3 | – | –
n.q. | – | – | – | n.q. | α-epi-7-epi-5-eudesmol | 3.4 | – | –

Compound | AerExt log Pe [1] | RootExt Te (%) ± SD 2 h (HBMEC cells) | AerExt Te (%) ± SD 2 h (HBMEC cells) | AerExt Te (%) ± SD 4 h (HBMEC cells) | RootExt log Pe [1] | log p ([2]; Table 1) | AerExt Te (%) ± SD 24 h (HBMEC cells) | further results
O=c1cc(-c2ccc(O)cc2)oc2cc(O)cc(O)c12 [Apigenin] | – | – | 4.2 ± 0.9% | 5.1 ± 0.3% | n.q. | 1.7 | 309.7 ± 93.0% | Papp at 4 h [1]: 97.7 ×10⁻⁶ cm/s
COc1ccc([C@@H]2CC(=O)c3c(O)cc(O[C@@H]4O[C@H](CO[C@@H]5O[C@@H](C)[C@H](O)[C@@H](O)[C@H]5O)[C@@H](O)[C@H](O)[C@H]4O)cc3O2)cc1O [Hesperidin] | n.q. | n.q. | n.q. | n.q. | n.q. | −1.1 | n.q. | RootExt Te (%) ± SD 4 h (HBMEC cells): n.q.; RootExt Te (%) ± SD 24 h (HBMEC cells): n.q.
COc1cc([C@@H]2OC[C@@H]3[C@H]2CO[C@H]3c2cc(OC)c(O[C@@H]3O[C@H](CO)[C@@H](O)[C@H](O)[C@H]3O)c(OC)c2)cc(OC)c1O[C@@H]1O[C@H](CO)[C@@H](O)[C@H](O)[C@H]1O [Syringaresinol diglucoside] | n.q. | – | n.q. | n.q. | n.q. | −1.4 | n.q. | –
C/C1=C\CC/C(C)=C/CC(C)(C)/C=C/C1 [α-humulene] | n.q. | – | – | – | n.q. | 4.5 | – | –
C/C=C\c1cc(OC)c(OC)cc1OC [β-asarone] | – | – | 7.5 ± 2.0% | 15.0 ± 7.3% | n.q. | 3.0 | 15.5 ± 1.0% | –
